Experimental data published in paper PMC8641298 (ACS infectious diseases, 2020).

Key:
[1] = HEK293 cytotoxicity; type: cell-based; details: human
[2] = test system: S. mansoni somules; experiment: In vitro phenotypic screen of S. mansoni somules; type: cell-based, Schistosoma mansoni
[3] = test system: S. mansoni adults; experiment: In vitro phenotypic screen of S. mansoni adults; type: cell-based, Schistosoma mansoni; details: for Phenotypic descriptors, adults 5 h / Phenotypic descriptors, adults 24 h / Phenotypic descriptors, adults 48 h: assays performed at 10 μM (footnote d)
[4] = test system: adult S. mansoni; experiment: WormAssay, average adult worm motility; type: cell-based, Schistosoma mansoni; details: 5 h; for WormAssay (average adult worm movement ± SD): DMSO control 104.1 ± 24.4; for EC50: Schistosoma mansoni, read-out: EC50 of paralysis measured by WormAssay
[5] = test system: acetylated α-tubulin in HEK293 cells; experiment: HEK293 MT-stabilization assay; type: cell-based; details: 4 h
[6] = HeLa cytotoxicity; type: cell-based; details: human, HeLa cells
[7] = HEK293 cells (method text: HEK 293T)
[8] = assays performed at 10 μM (footnote d)

Row | SMILES | CC50 at 48 h [1] [nM] | Phenotypic descriptors, somules (1 μM) 24 h [2] | Phenotypic descriptors, somules (1 μM) 48 h [2] | Phenotypic descriptors, somules (10 μM) 24 h [2] | Phenotypic descriptors, somules (10 μM) 48 h [2] | Phenotypic descriptors, adults (5 μM) 5 h [3] | Phenotypic descriptors, adults (5 μM) 24 h [3] | Phenotypic descriptors, adults (5 μM) 48 h [3] | WormAssay (average adult worm movement ± SD) ([4]; 5 μM) | Fold-change in acetylated α-tubulin ([5]; 1 μM) | CC50 at 48 h [6] [nM] | CC50 at 48 h [1, 7] [nM] | Phenotypic descriptors, adults 5 h [3] | Phenotypic descriptors, adults 24 h [3] | Phenotypic descriptors, adults 48 h [3] | WormAssay (average adult worm movement ± SD) [4, 8] | Fold-change in acetylated α-tubulin ([5]; 10 μM) | EC50 [4] [nM] | Fold-change in acetylated α-tubulin (significance) ([5]; either 1 or 10 μM)
1 | CNCCCOc1cc(F)c(-c2c(Cl)nc3ncnn3c2N[C@@H](C)C(F)(F)F)c(F)c1 [Compound 12, cevipabulin, reference compound] | 28 |  |  |  |  |  |  |  |  |  |  |  |  |  |  |  |  |  | 
2 | C[C@H](Nc1nc(-c2ccc3ccccc3n2)nc(Cl)c1-c1c(F)cc(F)cc1F)C(F)(F)F [Compound 21, (S)-6-chloro-2-(quinolin-2-yl)-5-(2,4,6-trifluorophenyl)-N-(1,1,1-trifluoropropan-2-yl)pyrimidin-4-amine] |  | N | N | R, deg | R, deg | N | N | S, on sides | 75.3 ± 18.9 | 1.95 ± 0.2 (1 μM) fold |  |  |  |  |  |  |  |  | 
3 | CC1(CNc2nc(-c3cnccn3)nc(Cl)c2-c2c(F)cc(F)cc2F)N=N1 [Compound 22, 6-chloro-N-((3-methyl-3H-diazirin-3-yl)methyl)-2-(pyrazin-2-yl)-5-(2,4,6-trifluorophenyl)-pyrimidin-4-amine] |  | R, deg | R, deg | R, deg | R, deg | N | N | Unc | 131.4 ± 27.4 | 2.68 ± 0.04 (1 μM) fold | 40 ± 12 | 50 ± 10 |  |  |  |  |  |  | 
4 | C[C@H](Nc1nc(-c2nccs2)nc(Cl)c1-c1c(F)cc(F)cc1F)C(F)(F)F [Compound 23, (S)-6-chloro-2-(thiazol-2-yl)-5-(2,4,6-trifluorophenyl)-N-(1,1,1-trifluoropropan-2-yl)pyrimidin-4-amine] |  | Deg, unc | Deg, unc | Deg, unc | Deg, unc |  |  |  |  |  | 6 ± 1 | 8 ± 2 | Unc, dark^d | Unc, dark^d | Unc, dark^d | 62.1 ± 26.4^d |  |  | 
5 | C[C@H](Nc1nc(-c2ccco2)nc(Cl)c1-c1c(F)cc(F)cc1F)C(F)(F)F [Compound 24, (S)-6-chloro-2-(furan-2-yl)-5-(2,4,6-trifluorophenyl)-N-(1,1,1-trifluoropropan-2-yl)pyrimidin-4-amine] |  | N | N | N | Deg, unc |  |  |  |  |  |  |  | S^d | Unc, on sides^d | S, dark, on sides^d | 56.0 ± 21.5^d | 2.7 ± 0.2 (10 μM) fold |  | 
6 | C[C@H](Nc1nc(-c2cccs2)nc(Cl)c1-c1c(F)cc(F)cc1F)C(F)(F)F [Compound 25, (S)-6-chloro-2-(thiophen-2-yl)-5-(2,4,6-trifluorophenyl)-N-(1,1,1-trifluoropropan-2-yl)pyrimidin-4-amine] |  | R, S | R, S | rounding and immobility and R, I | R, I, | I, on sides | I, on sides | I, on sides | 5.5 ± 9.8 |  | 1660 ± 612 | 1270 ± 106 |  |  |  |  | 3.0 ± 0.6 (10 μM) fold | ~1000 | 
7 | C[C@H](Nc1nc(-c2cccs2)ncc1-c1c(F)cc(F)cc1F)C(F)(F)F [Compound 26, (S)-2-(thiophen-2-yl)-5-(2,4,6-trifluorophenyl)-N-(1,1,1-trifluoropropan-2-yl)pyrimidin-4-amine] |  | R, S | R | R, S | R, S |  |  |  |  |  | > 100000 | > 50000 | S^d | Unc, on sides^d | S, dark, on sides^d | 11.0 ± 14.7^d |  |  | NS^e
8 | C[C@@H](Nc1nc(-c2cccs2)nc(Cl)c1-c1c(F)cc(F)cc1F)C(F)(F)F [Compound 27, (R)-6-chloro-2-(thiophen-2-yl)-5-(2,4,6-trifluorophenyl)-N-(1,1,1-trifluoropropan-2-yl)pyrimidin-4-amine] |  | R, S | R | R, I | R, I | I, on sides | I, on sides | I, on sides | 6.3 ± 9.3 |  | 27700 ± 10400 | 29400 |  |  |  |  |  |  | 
9 | CC(C)[C@@H](C)Nc1nc(-c2cccs2)nc(Cl)c1-c1c(F)cc(F)cc1F [Compound 28, (R)-6-chloro-N-(3-methylbutan-2-yl)-2-(thiophen-2-yl)-5-(2,4,6-trifluorophenyl)pyrimidin-4-amine] |  | R, I | R, I | R, I | R, I | I, on sides | I, on sides | I, on sides | 2.9 ± 8.8 |  | 17400 ± 2000 | 26800 |  |  |  |  |  | ~1000 | 
10 | CC(C)[C@H](C)Nc1nc(-c2cccs2)nc(Cl)c1-c1c(F)cc(F)cc1F [Compound 29, (S)-6-chloro-N-(3-methylbutan-2-yl)-2-(thiophen-2-yl)-5-(2,4,6-trifluorophenyl)pyrimidin-4-amine] |  | R, S | R, S | R, I | R, I | I, on sides | I, on sides | I, on sides | 5.0 ± 11.5 |  | 8780 ± 1390 | 29100 |  |  |  |  |  | ~1000 | 
11 | CC1(CNc2nc(-c3cccs3)nc(Cl)c2-c2c(F)cc(F)cc2F)N=N1 [Compound 30, 6-chloro-N-((3-methyl-3H-diazirin-3-yl)methyl)-2-(thiophen-2-yl)-5-(2,4,6-trifluorophenyl)-pyrimidin-4-amine] |  | S | S, R | R, I | R, I | S, on sides | S, on sides | S, on sides | 12.9 ± 18.1 |  | 3890 ± 1860 | 1270 ± 35 |  |  |  |  |  |  | 
12 | C[C@H](Nc1cc(Cl)nc(-c2cccs2)n1)C(F)(F)F [Compound 31, (S)-6-chloro-2-(thiophen-2-yl)-N-(1,1,1-trifluoropropan-2-yl)pyrimidin-4-amine] |  | R, unc | N | R, unc | N | N | N | N | 89.0 ± 18.6 |  |  |  |  |  |  |  |  |  | 
13 | Fc1cc(F)c(-c2cnc(-c3cccs3)nc2Cl)c(F)c1 [Compound 32, 4-chloro-2-(thiophen-2-yl)-5-(2,4,6-trifluorophenyl)pyrimidine] |  | N | N | R, S | N | N | N | N | 78.0 ± 20.1 |  |  |  |  |  |  |  |  |  | 
14 | O=C(C1CCCCC1)N1CC(=O)N2CCc3ccccc3C2C1 (centres unmarked) [PZQ, praziquantel, reference compound] |  |  |  |  |  |  |  |  | 1.8 ± 5.1 |  |  |  |  |  |  |  |  |  | 
